The values below come from ChEMBL document CHEMBL1275550, “In vitro activity of doripenem, a carbapenem for the treatment of challenging infections caused by gram-negative bacteria, against recent clinical isolates from the United States” (2008).

Common to all, as to assay type: functional
In experiment [1] the test system is Serratia marcescens. The experiment can be described thus: Antimicrobial activity against Ceftazidime non-susceptible Serratia marcescens assessed as resistant isolate by broth microdilution method. A general note: Dilution methods test growth across graded concentrations, often in twofold steps.
For experiment [2], the system named is Citrobacter. In words: Antimicrobial activity against Citrobacter with derepressed AmpC beta-lactamsae assessed as resistant isolate by broth microdilution method.
The subject of experiment [3] is Proteus mirabilis. The experiment can be described thus: Antimicrobial activity against ESBL producing Proteus mirabilis assessed as resistant isolate by broth microdilution method.
Experiment [4] concerns Proteus mirabilis. The experiment can be described thus: Antimicrobial activity against Proteus mirabilis assessed as resistant isolate by broth microdilution method.
In experiment [5] the test system is Pseudomonas aeruginosa. In words: Antimicrobial activity against imipenem susceptible Pseudomonas aeruginosa assessed as susceptible isolate by broth microdilution method in presence of Tazobactam.
The subject of experiment [6] is Serratia marcescens. The experiment can be described thus: Antimicrobial activity against ceftazidime susceptible Serratia marcescens by broth microdilution method in presence of Tazobactam.
Experiment [7] concerns Pseudomonas aeruginosa. In words: Antimicrobial activity against Pseudomonas aeruginosa isolated from non-ICU patient assessed as susceptible isolate by broth microdilution method in presence of Tazobactam.
Experiment [8] relates to Pseudomonas aeruginosa. The experiment can be described thus: Antimicrobial activity against Pseudomonas aeruginosa isolated from ICU patient assessed as resistant isolate by broth microdilution method in presence of Tazobactam.
Experiment [9] deals with Enterobacter cloacae. The experiment can be described thus: Antimicrobial activity against Enterobacter cloacae with derepressed AmpC beta-lactamsae by broth microdilution method in presence of Tazobactam.
The subject of experiment [10] is Pseudomonas aeruginosa. The experiment can be described thus: Antimicrobial activity against imipenem non-susceptible Pseudomonas aeruginosa assessed as intermediate isolate by broth microdilution method in presence of Tazobactam.
Experiment [11] concerns Proteus mirabilis. The experiment can be described thus: Antimicrobial activity against Non-ESBL Proteus mirabilis assessed as intermediate isolate by broth microdilution method in presence of Tazobactam.
The subject of experiment [12] is Pseudomonas aeruginosa. In words: Antimicrobial activity against ceftazidime susceptible Pseudomonas aeruginosa assessed as resistant isolate by broth microdilution method in presence of Tazobactam.
Experiment [13] has as its system Acinetobacter. The experiment can be described thus: Antimicrobial activity against imipenem susceptible Acinetobacter by broth microdilution method in presence of Tazobactam.
The test system of experiment [14] is Escherichia coli. In words: Antimicrobial activity against ESBL producing Escherichia coli assessed as intermediate isolate by broth microdilution method in presence of Tazobactam.
The test system of experiment [15] is Pseudomonas aeruginosa. In words: Antimicrobial activity against Pseudomonas aeruginosa isolated from ICU patient assessed as intermediate isolate by broth microdilution method.
Experiment [16] relates to Pseudomonas aeruginosa. The experiment can be described thus: Antimicrobial activity against Ceftazidime non-susceptible Pseudomonas aeruginosa assessed as intermediate isolate by broth microdilution method in presence of tazobactam.
For experiment [17], the system named is Citrobacter. The experiment can be described thus: Antimicrobial activity against Citrobacter with nonderepressed AmpC beta-lactamsae by broth microdilution method in presence of Tazobactam.
Experiment [18] concerns Serratia marcescens. The experiment can be described thus: Antimicrobial activity against ceftazidime non-susceptible Serratia marcescens assessed as susceptible isolate by broth microdilution method in presence of Tazobactam.
In experiment [19] the test system is Serratia marcescens. In words: Antimicrobial activity against Ceftazidime susceptible Serratia marcescens assessed as intermediate isolate by broth microdilution method in presence of tazobactam.
The test system of experiment [20] is Serratia marcescens. In words: Antimicrobial activity against ceftazidime non-susceptible Serratia marcescens assessed as resistant isolate by broth microdilution method in presence of Tazobactam.
The test system of experiment [21] is Klebsiella pneumoniae. The experiment can be described thus: Antimicrobial activity against Non-ESBL Klebsiella pneumoniae assessed as susceptible isolate by broth microdilution method in presence of Tazobactam.
Experiment [22] deals with Proteus mirabilis. In words: Antimicrobial activity against ESBL producing Proteus mirabilis assessed as susceptible isolate by broth microdilution method in presence of Tazobactam.
In experiment [23] the test system is Escherichia coli. In words: Antimicrobial activity against ESBL producing Escherichia coli by broth microdilution method in presence of Tazobactam.
The test system of experiment [24] is Enterobacteriaceae. In words: Antimicrobial activity against Ceftazidime non-susceptible Enterobacteriaceae assessed as resistant isolate by broth microdilution method in presence of tazobactam.
Experiment [25] deals with Pseudomonas aeruginosa. In words: Antimicrobial activity against Pseudomonas aeruginosa isolated from ICU patient assessed as susceptible isolate by broth microdilution method in presence of Tazobactam.
For experiment [26], the system named is Pseudomonas aeruginosa. The experiment can be described thus: Antimicrobial activity against imipenem non-susceptible Pseudomonas aeruginosa assessed as resistant isolate by broth microdilution method in presence of Tazobactam.
Experiment [27] has as its system Serratia marcescens. The experiment can be described thus: Antimicrobial activity against Ceftazidime non-susceptible Serratia marcescens assessed as intermediate isolate by broth microdilution method in presence of tazobactam.
The subject of experiment [28] is Pseudomonas aeruginosa. The experiment can be described thus: Antimicrobial activity against ceftazidime non-susceptible Pseudomonas aeruginosa by broth microdilution method in presence of Tazobactam.
The subject of experiment [29] is Klebsiella pneumoniae. The experiment can be described thus: Antimicrobial activity against ESBL producing Klebsiella pneumoniae assessed as susceptible isolate by broth microdilution method in presence of Tazobactam.
The test system of experiment [30] is Citrobacter. The experiment can be described thus: Antimicrobial activity against Citrobacter with derepressed AmpC beta-lactamsae by broth microdilution method in presence of Tazobactam.
The test system of experiment [31] is Pseudomonas aeruginosa. In words: Antimicrobial activity against Ceftazidime susceptible Pseudomonas aeruginosa assessed as intermediate isolate by broth microdilution method in presence of tazobactam.
The subject of experiment [32] is Pseudomonas aeruginosa. The experiment can be described thus: Antimicrobial activity against Pseudomonas aeruginosa isolated from non-ICU patient assessed as intermediate isolate by broth microdilution method in presence of Tazobactam.
Experiment [33] concerns Pseudomonas aeruginosa. In words: Antimicrobial activity against Pseudomonas aeruginosa isolated from non-ICU patient assessed as resistant isolate by broth microdilution method in presence of Tazobactam.
Experiment [34] deals with Citrobacter. The experiment can be described thus: Antimicrobial activity against Citrobacter with nonderepressed AmpC beta-lactamsae assessed as intermediate isolate by broth microdilution method in presence of Tazobactam.
Experiment [35] relates to Klebsiella pneumoniae. In words: Antimicrobial activity against ESBL producing Klebsiella pneumoniae assessed as resistant isolate by broth microdilution method in presence of Tazobactam.
For experiment [36], the system named is Pseudomonas aeruginosa. In words: Antimicrobial activity against imipenem non-susceptible Pseudomonas aeruginosa by broth microdilution method in presence of Tazobactam.
Experiment [37] deals with Pseudomonas aeruginosa. The experiment can be described thus: Antimicrobial activity against ceftazidime non-susceptible Pseudomonas aeruginosa assessed as susceptible isolate by broth microdilution method in presence of Tazobactam.
For experiment [38], the system named is Citrobacter. In words: Antimicrobial activity against Citrobacter with nonderepressed AmpC beta-lactamsae assessed as resistant isolate by broth microdilution method in presence of Tazobactam.
Experiment [39] concerns Acinetobacter. The experiment can be described thus: Antimicrobial activity against imipenem susceptible Acinetobacter assessed as resistant isolate by broth microdilution method in presence of Tazobactam.
Experiment [40] concerns Pseudomonas aeruginosa. In words: Antimicrobial activity against imipenem susceptible Pseudomonas aeruginosa assessed as intermediate isolate by broth microdilution method in presence of Tazobactam.
Experiment [41] concerns Acinetobacter. The experiment can be described thus: Antimicrobial activity against imipenem non-susceptible Acinetobacter by broth microdilution method in presence of Tazobactam.
Experiment [42] relates to Citrobacter. In words: Antimicrobial activity against Citrobacter with nonderepressed AmpC beta-lactamsae assessed as susceptible isolate by broth microdilution method in presence of Tazobactam.
Experiment [43] concerns Acinetobacter. In words: Antimicrobial activity against imipenem non-susceptible Acinetobacter assessed as resistant isolate by broth microdilution method in presence of Tazobactam.
For experiment [44], the system named is Klebsiella pneumoniae. In words: Antimicrobial activity against Non-ESBL Klebsiella pneumoniae by broth microdilution method in presence of Tazobactam.
Experiment [45] deals with Pseudomonas aeruginosa. The experiment can be described thus: Antimicrobial activity against imipenem susceptible Pseudomonas aeruginosa assessed as resistant isolate by broth microdilution method in presence of Tazobactam.
The subject of experiment [46] is Escherichia coli. The experiment can be described thus: Antimicrobial activity against Non-ESBL Escherichia coli by broth microdilution method in presence of Tazobactam.
Experiment [47] has as its system Enterobacteriaceae. The experiment can be described thus: Antimicrobial activity against ceftazidime-susceptible Enterobacteriaceae assessed as resistant isolate by broth microdilution method in presence of Tazobactam.

Consider `CC(C)(O/N=C(\C(=O)N[C@@H]1C(=O)N2C(C(=O)[O-])=C(C[n+]3ccccc3)CS[C@H]12)c1csc(N)n1)C(=O)O` [CEFTAZIDIME], for which the Activity in experiment [1] is reported as 100%; in [2] it was 100%; in experiment [3], 0%.

In the case of `C[C@@H](O)[C@H]1C(=O)N2C(C(=O)O)=C(SCCNC=N)C[C@H]12` [IMIPENEM ANHYDROUS], the Activity in experiment [4] is 0.2%.

For orientation: MIC50 means the lowest concentration that inhibits either 50% of growth or 50% of the strains tested, depending on the study. For orientation: MIC90 means an inhibitory concentration at the 90% level, which refers to growth in some studies and to a panel of isolates in others. `CCN1CCN(C(=O)N[C@@H](C(=O)N[C@@H]2C(=O)N3[C@@H]2SC(C)(C)[C@@H]3C(=O)O)c2ccccc2)C(=O)C1=O` [PIPERACILLIN]: the Activity in [5] is reported as 90.6%; in experiment [7], 87%; in experiment [8], 21.6%; in [10], 0%; in experiment [11] it was 0.3%; in [12] it was 3.7%. Besides, the Activity in experiment [14] was 16.7%; in experiment [16], 0%; in experiment [18], 20%; in experiment [19], 4.4%; in experiment [20] it was 50%; in experiment [21], 95.9%. Further, the Activity in experiment [22] was determined as 100%; in experiment [24] it was 63.8%; in [25], 78.4%; in [26] it was 27.1%; in experiment [27] it was 30%; in experiment [29], 11.4%. Besides, the Activity in [31] is listed as 0%; in experiment [32] it was 0%; in experiment [33] it was 13%; in [34], 3.7%; in experiment [35] it was 77.3%; in experiment [37], 17.3%. Further, the Activity in experiment [38] was 2.6%; in experiment [39], 29.8%; in experiment [40] it was 0%; in experiment [42], 93.7%; in experiment [43] it was 96.1%; in experiment [45], 9.4%. Besides, the Activity in experiment [47] is given as 1.9%. Moreover, the MIC50 is 4 µg/mL in experiment [6]; more than 128 µg/mL in [9]; 16 µg/mL in experiment [13]; 16 µg/mL in experiment [15]; 4 µg/mL in experiment [17]; 16 µg/mL in experiment [23]. Also, the MIC50 is more than 128 µg/mL in [28]; 128 µg/mL in [30]; 16 µg/mL in experiment [36]; more than 128 µg/mL in [41]; 4 µg/mL in experiment [44]; 4 µg/mL in experiment [46]. In addition, the MIC90 in [6] was 16 µg/mL; in experiment [9] it was more than 128 µg/mL; in [13], more than 128 µg/mL; in experiment [15], more than 128 µg/mL; in experiment [17] it was 16 µg/mL; in experiment [23], more than 128 µg/mL. Moreover, the MIC90 is more than 128 µg/mL in [28]; more than 128 µg/mL in [30]; more than 128 µg/mL in experiment [36]; more than 128 µg/mL in experiment [41]; 16 µg/mL in experiment [44]; 8 µg/mL in [46].
